The target in assay [1] is T1, human A2A receptors (Homo sapiens, UniProt P29274).
T1 construct: expressed in transfected cells; host or cells: HEK293
The experiment in a line: Functional human A2A receptor activity, recombinant HEK293 cells, cAMP (HTRF). The assay is classed as cell-based. The conditions noted are these: read-out: A2A (Category). The protocol:
(§1) The functional activities of human A2A and A2B receptors were determined by quantification of cAMP, being the second messenger for adenosine receptors.
(§2) After a 15 min incubation, HTRF reagents (cAMP dynamic 2, Cis Bio) were added and the cellular cAMP levels were determined using the ENVISION (Perkin Elmer) plate reader.
On the technique in general: In TR-FRET formats the signal depends on donor and acceptor labels being close together.

Assay [2] concerns the target T2, human A2B receptors (Homo sapiens, UniProt P29275).
T2 construct: expressed in transfected cells; host or cells: HEK293
T2 sequence (P29275 1-332): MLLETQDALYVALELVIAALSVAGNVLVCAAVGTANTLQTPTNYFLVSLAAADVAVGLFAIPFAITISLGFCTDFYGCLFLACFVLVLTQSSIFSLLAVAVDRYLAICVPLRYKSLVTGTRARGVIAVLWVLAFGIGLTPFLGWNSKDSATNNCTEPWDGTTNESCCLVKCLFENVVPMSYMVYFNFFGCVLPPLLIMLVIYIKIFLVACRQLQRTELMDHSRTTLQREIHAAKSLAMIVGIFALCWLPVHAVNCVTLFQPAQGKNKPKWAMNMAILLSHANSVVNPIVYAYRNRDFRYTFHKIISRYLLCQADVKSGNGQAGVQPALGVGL
The experiment in a line: Functional human A2B receptor activity, recombinant HEK293 cells, cAMP (HTRF). The assay is classed as cell-based. The settings on record: read-out: A2B (Category). The protocol: as §1, §2

In US20210380606A1, “5-AZAINDAZOLE DERIVATIVES AS ADENOSINE RECEPTOR ANTAGONISTS” (Merck Patent GmbH, priority 2018, published 2021) one finds IC50 data, which are given here for 23 molecules.

Like-named read-outs stand apart in the source and are kept apart here.

T1 sequence (P29274 whole entry): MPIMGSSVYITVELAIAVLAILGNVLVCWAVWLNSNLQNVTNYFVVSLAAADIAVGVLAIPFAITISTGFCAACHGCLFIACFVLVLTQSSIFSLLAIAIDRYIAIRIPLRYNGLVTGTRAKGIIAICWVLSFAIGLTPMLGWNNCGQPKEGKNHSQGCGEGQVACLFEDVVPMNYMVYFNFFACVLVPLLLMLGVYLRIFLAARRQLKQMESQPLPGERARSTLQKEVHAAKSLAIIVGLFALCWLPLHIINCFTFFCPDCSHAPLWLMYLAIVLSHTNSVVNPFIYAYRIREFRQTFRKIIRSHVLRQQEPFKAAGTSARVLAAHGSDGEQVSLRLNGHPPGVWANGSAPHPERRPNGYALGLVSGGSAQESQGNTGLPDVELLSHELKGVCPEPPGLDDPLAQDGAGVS

Take `O=C(c1cc2c(cn1)c(-c1cnn3ccccc13)nn2CC(F)(F)F)N1CCCOCC1` [Compound 95, 1,4-Oxazepan-4-yl-[3-pyrazolo[1,5-a]pyridine-3-yl-1-(2,2,2-trifluoro-ethyl)-1H-pyrazolo[4,3-c]pyridine-6-yl]-methanone]: the IC50 is less than 100 nM in assay [1] and less than 1000 nM in assay [2].
Consider `O=C(c1cc2c(cn1)c(-c1cnc3c(F)cc(F)cn13)nn2CC(F)(F)F)N1CCC(O)(C(F)(F)F)CC1` [Compound 148, [3-(6,8-Difluoro-imidazo[1,2-a]pyridin-3-yl)-1-(2,2,2-trifluoro-ethyl)-1H-pyrazolo[4,3-c]pyridin-6-yl]-(4-hydroxy-4-trifluoromethyl-piperidin-1-yl)-methanone], for which the IC50 in assay [1] and in assay [2] was less than 1000 nM in each case.
`O=C(c1cc2c(cn1)c(-c1cnc3c(F)cc(F)cn13)nn2CC(F)(F)F)N1CCOC2CC21` (stereo not shown) [Compound 205, [3-(6,8-Difluoro-imidazo[1,2-a]pyridin-3-yl)-1-(2,2,2-trifluoro-ethyl)-1H-pyrazolo[4,3-c]pyridin-6-yl]-(2-oxa-5-aza-bicyclo[4.1.0]hept-5-yl)-methanone]: the IC50 is less than 100 nM in assay [1] and less than 1000 nM in assay [2].
Taken in the same sequence, the figures for `O=C(c1cc2c(cn1)c(-c1cnc3c(F)cc(F)cn13)nn2CC(F)(F)F)N1CCC(F)CC1` [Compound 144, [3-(6,8-Difluoro-imidazo[1,2-a]pyridin-3-yl)-1-(2,2,2-trifluoro-ethyl)-1H-pyrazolo[4,3-c]pyridin-6-yl]-(4-fluoro-piperidin-1-yl)-methanone] were less than 100 nM and less than 1000 nM.
Taken in the same sequence, the figures for `CC1(O)C2CCC1CN(C(=O)c1cc3c(cn1)c(-c1cnc4c(F)cc(F)cn14)nn3CS(C)(=O)=O)C2` (stereo not drawn) [Compound 24, [3-(6,8-Difluoro-imidazo[1,2-a]pyridin-3-yl)-1-methanesulfonylmethyl-1H-pyrazolo[4,3-c]pyridin-6-yl]-(8-endo-hydroxy-8-exo-methyl-3-aza-bicyclo[3.2.1]oct-3-yl)-methanone] were less than 100 nM and less than 100 nM.
With `CS(=O)(=O)Cn1nc(-c2cnn3ccncc23)c2cnc(C(=O)N3CCCOCC3)cc21` [Compound 250, (1-Methanesulfonylmethyl-3-pyrazolo[1,5-a]pyrazin-3-yl-1H-pyrazolo[4,3-c]pyridin-6-yl)-(1,4-oxazepan-4-yl)methanone], the figures for the IC50 in assay [1] and in assay [2] were less than 100 nM and less than 1000 nM, respectively.
Taken in the same sequence, the figures for `CS(=O)(=O)Cn1nc(-c2cnc3c(F)cc(F)cn23)c2cnc(C(=O)N3CCCOCC3)cc21` [Compound 15, [3-(6,8-Difluoro-imidazo[1,2-a]pyridin-3-yl)-1-methanesulfonylmethyl-1H-pyrazolo[4,3-c]pyridin-6-yl]-1,4-oxazepan-4-yl-methanone] were less than 100 nM and less than 100 nM.
Taken in the same sequence, the figures for `CC1CC(O)CCN1C(=O)c1cc2c(cn1)c(-c1cnc3c(F)cc(F)cn13)nn2CC(F)(F)F` (stereo not shown) [Compound 138, [3-(6,8-Difluoro-imidazo[1,2-a]pyridin-3-yl)-1-(2,2,2-trifluoro-ethyl)-1H-pyrazolo[4,3-c]pyridin-6-yl]-(4-hydroxy-2-methyl-piperidin-1-yl)-methanone] were less than 100 nM and less than 100 nM.
For `O=C(c1cc2c(cn1)c(-c1coc3ccccc13)nn2CC(F)(F)F)N1CCOCC(F)C1` (stereo not shown) [Compound 230, [3-(benzofuran-3-yl)-1-(2,2,2-trifluoroethyl)pyrazolo[4,3-c]pyridin-6-yl]-[6-fluoro-1,4-oxazepan-4-yl]methanone], in that order: less than 100 nM and less than 100 nM.
With `O=C(c1cc2c(cn1)c(-c1coc3ccccc13)nn2CC(F)(F)F)N1CCCC(O)CC1` (stereo not shown) [Compound 228, [3-(benzofuran-3-yl)-1-(2,2,2-trifluoroethyl)pyrazolo[4,3-c]pyridin-6-yl]-(4-hydroxyazepan-1-yl)methanone], the IC50 in assay [1] and in assay [2] was less than 100 nM in each case.
On to `CC1(O)C2CCC1CN(C(=O)c1cc3c(cn1)c(-c1coc4ccccc14)nn3CS(C)(=O)=O)C2` (stereo not drawn) [Compound 28, (3-Benzofuran-3-yl-1-methanesulfonylmethyl-1H-pyrazolo[4,3-c]pyridin-6-yl)-(8-endo-hydroxy-8-exo-methyl-d3-3-aza-bicyclo[3.2.1]oct-3-yl)-methanone], for which the IC50 in assay [1] (recombinant HEK293 cells expressing human A2A receptor, agonist NECA, cAMP HTRF, 15 min incubation) was less than 100 nM; in assay [2] (recombinant HEK293 cells expressing human A2B receptor, agonist NECA, cAMP HTRF, 15 min incubation), less than 100 nM.
As for `O=C(c1cc2c(cn1)c(-c1cnc3ccccn13)nn2CC(F)(F)F)N1CCCCCC1` [Compound 55, Azepan-1-yl-[3-imidazo[1,2-a]pyridin-3-yl-1-(2,2,2-trifluoro-ethyl)-1H-pyrazolo[4,3-c]pyridin-6-yl]-methanone], the IC50 was less than 100 nM in assay [1] and less than 1000 nM in assay [2].
Taken in the same sequence, the figures for `O=C(c1cc2c(cn1)c(-c1cnc3c(F)cc(F)cn13)nn2CC(F)(F)F)N1C2CCCC1CC2` [Compound 172, (8-Aza-bicyclo[3.2.1]oct-8-yl)-[3-(6,8-difluoro-imidazo[1,2-a]pyridin-3-yl)-1-(2,2,2-trifluoro-ethyl)-1H-pyrazolo[4,3-c]pyridin-6-yl]-methanone] were less than 100 nM and less than 100 nM.
For `CS(=O)(=O)Cn1nc(-c2cnn3ccccc23)c2cnc(C(=O)N3CCCOCC3)cc21` [Compound 17, (1-Methanesulfonylmethyl-3-pyrazolo[1,5-a]pyridin-3-yl-1H-pyrazolo[4,3-c]pyridin-6-yl)-1,4-oxazepan-4-yl-methanone], in that order: less than 100 nM and less than 100 nM.
As for `O=C(c1cc2c(cn1)c(-c1cnc3ccc(F)cn13)nn2CC(F)(F)F)N1[C@@H]2CC[C@H]1C[C@@H](O)C2` [Compound 86, [3-(6-fluoroimidazo[1,2-a]pyridin-3-yl)-1-(2,2,2-trifluoroethyl)pyrazolo[4,3-c]pyridin-6-yl]-(3-endo-hydroxy-8-azabicyclo[3.2.1]octan-8-yl)methanone], the IC50 in assay [1] and in assay [2] was less than 100 nM throughout.
Regarding `[2H]C1([2H])COCCN(C(=O)c2cc3c(cn2)c(-c2cnn4ccccc24)nn3CC(F)(F)F)C1` [Compound 121, (6,6-dideuterio-1,4-oxazepan-4-yl)-[3-pyrazolo[1,5-a]pyridin-3-yl-1-(2,2,2-trifluoroethyl)pyrazolo[4,3-c]pyridin-6-yl]methanone], the IC50 in assay [1] and in assay [2] was less than 100 nM in each case.
For the molecule `CCC1(O)C2CCC1CN(C(=O)c1cc3c(cn1)c(-c1coc4ccccc14)nn3CC(F)(F)F)C2` (stereo not drawn) [Compound 210, [3-Benzofuran-3-yl-1-(2,2,2-trifluoro-ethyl)-1H-pyrazolo[4,3-c]pyridin-6-yl]-(8-exo-ethyl-8-endo-hydroxy-3-aza-bicyclo[3.2.1]oct-3-yl)-methanone], the values for the IC50 in assay [1] and in assay [2] were less than 100 nM and less than 1000 nM, respectively.
For the molecule `O=C(c1cc2c(cn1)c(-c1cnc3c(F)cc(F)cn13)nn2CC(F)(F)F)N1CC2CCC(C1)O2` [Compound 83, [3-(6,8-Difluoro-imidazo[1,2-a]pyridin-3-yl)-1-(2,2,2-trifluoro-ethyl)-1H-pyrazolo[4,3c]pyridin-6-yl]-(8-oxa-3-aza-bicyclo[3.2.1]oct-3-yl)-methanone], the figures for the IC50 in assay [1] and in assay [2] were less than 100 nM and less than 1000 nM, respectively.
Taken in the same sequence, the figures for `O=C(c1cc2c(cn1)c(-c1cnc3cc(F)c(Cl)cn13)nn2CC(F)(F)F)N1CCCCCC1` [Compound 74, Azepan-1-yl-[3-(6-chloro-7-fluoro-imidazo[1,2-a]pyridin-3-yl)-1-(2,2,2-trifluoro-ethyl)-1H-pyrazolo[4,3-c]pyridin-6-yl]-methanone] were less than 100 nM and less than 1000 nM.
For `O=C(c1cc2c(cn1)c(-c1c[nH]c3ccccc13)nn2CC(F)(F)F)N1CCCOCC1` [Compound 96, [3-(1H-Indol-3-yl)-1-(2,2,2-trifluoro-ethyl)-1H-pyrazolo[4,3-c]pyridine-6-yl]-1,4-oxazepan-4-yl-methanone], in that order: less than 100 nM and less than 1000 nM.
As for `CS(=O)(=O)n1nc(-c2cnc3c(F)cc(F)cn23)c2cnc(C(=O)N3CCCOCC3)cc21` [Compound 10, [3-(6,8-Difluoro-imidazo[1,2-a]pyridin-3-yl)-1-methanesulfonyl-1H-pyrazolo[4,3-c]pyridin-6-yl]-1,4-oxazepan-4-yl-methanone], the IC50 in assay [1] is less than 100 nM; in assay [2] it was less than 1000 nM.
On to `O=C(c1cc2c(cn1)c(-c1cnc3c(F)cc(F)cn13)nn2CC(F)(F)F)N1CCC(O)CC1` [Compound 132, [3-(6,8-Difluoro-imidazo[1,2-a]pyridin-3-yl)-1-(2,2,2-trifluoro-ethyl)-1H-pyrazolo[4,3-c]pyridin-6-yl]-(4-hydroxy-piperidin-1-yl)-methanone], for which the IC50 in assay [1] and in assay [2] was less than 100 nM in each case.
On to `O=C(c1cc2c(cn1)c(-c1cnc3c(F)cc(F)cn13)nn2CC(F)(F)F)N1CCC(CO)CC1` [Compound 165, [3-(6,8-Difluoro-imidazo[1,2-a]pyridin-3-yl)-1-(2,2,2-trifluoro-ethyl)-1H-pyrazolo[4,3-c]pyridin-6-yl]-(4-hydroxymethyl-piperidin-1-yl)-methanone], for which the IC50 is less than 100 nM in assay [1] and less than 1000 nM in assay [2].
